Counter-ions that a name gives are not always drawn.

The assay deals with T1, human orexin-2 (hOX2) receptors (Homo sapiens, UniProt O43614).
T1 construct: expressed in transfected cells
T1 sequence (O43614 1-444): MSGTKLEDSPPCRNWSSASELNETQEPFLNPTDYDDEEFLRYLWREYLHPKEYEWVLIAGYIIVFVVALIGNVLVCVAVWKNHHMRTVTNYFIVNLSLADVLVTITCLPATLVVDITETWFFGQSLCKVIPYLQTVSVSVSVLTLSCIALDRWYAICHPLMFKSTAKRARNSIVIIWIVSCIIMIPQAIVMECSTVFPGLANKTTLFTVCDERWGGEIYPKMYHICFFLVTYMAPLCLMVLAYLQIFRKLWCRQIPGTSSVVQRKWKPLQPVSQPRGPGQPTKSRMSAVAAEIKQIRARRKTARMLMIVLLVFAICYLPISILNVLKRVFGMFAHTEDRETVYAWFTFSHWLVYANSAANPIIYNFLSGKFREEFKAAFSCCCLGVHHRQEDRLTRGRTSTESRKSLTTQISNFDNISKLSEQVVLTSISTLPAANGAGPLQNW
The assay is described as follows: Intracellular Ca2+ mobilization assay (FLIPR), antagonism of orexin-A. The format is cell-based. As to conditions: CHO(dHFr-) cells stably expressing hOX2; orexin-A at EC80 as agonist; antagonist applied 25 min before; Kb=IC50/(1+[A]/EC50); read-out: Kb (μM) OX2R (human). On the procedure: Intracellular Ca^2+ Mobilization Assay
The Chinese Hamster Ovary (dHFr—) mutant cell line stably expressing human orexin-1 (hOX1) or human orexin-2 (hOX2) receptors were maintained in Dulbecco's Modified Eagle Medium (1X) with GlutaMax™ 1, 4500 mg/L D-Glucose and Sodium Pyruvate (Catalog No. 31966-021, Invitrogen, Carlsbad, Calif.), 5% dialyzed fetal calf serum (Catalog No. 26400-044), 100 μg/ml penicillin and 100 μg/ml streptomycin. The cells were seeded at 5×10^4 cells/well in the poly-D-lysine treated, 96-well, black/clear-bottomed plates (Catalog No. BD356640, BD Biosciences, Palo Alto, Calif.). 24 h later, the cells were loaded for 1 h at 37° C. with 4 μM Flou-4 acetoxymethyl ester (Catalog No. F-14202, Molecular Probes, Eugene, Oreg.) in FLIPR buffer (1×HBSS, 20 mM HEPES, 2.5 mM Probenecid). Hanks' Balanced Salt Solution (HBSS) (10×) (catalog No. 14065-049) and HEPES (1M) (catalog No. 15630-056) were purchased from Invitrogen, Carlsbad, Calif. Probenecid (250 mM) (catalog No. P8761) was from Sigma, Buchs, Switzerland. The cells were washed five times with FLIPR buffer to remove excess dye and intracellular calcium mobilization, [Ca^2+]i were measured using a Fluorometric Imaging Plate Reader (FLIPR-96, Molecular Devices, Menlo Park, Calif.) as described previously (Malherbe et al., Mol. Pharmacol., 64, 823-832, 2003). Orexin A (catalog No. 1455, Toris Cookson Ltd, Bristol, UK) was used as agonist. Orexin A (50 mM stock solution in DMSO) was diluted in FLIPR buffer +0.1% BSA. The EC50 and EC80 values of orexin-A were measured daily from standard agonist concentration-response curves in CHO(dHFr—)—OX1R and —OX2R cell lines. All compounds were dissolved in 100% DMSO. Inhibition curves were determined by addition of 11 concentrations (0.0001-10 μM) of inhibitory compounds and using EC80 value of orexin-A as agonist (a concentration which gave 80% of max agonist response, determined daily). The antagonists were applied 25 min (incubation at 37° C.) before the application of the agonist. Responses were measured as peak increase in fluorescence minus basal, normalized to the maximal stimulatory effect induced by EC80 value of orexin-A or orexin- B. Inhibition curves were fitted according to the Hill equation: y=100/(1+(x/IC50)^nH), where nH=slope factor using Excel-fit 4 software (Microsoft). Kb values were calculated according to the following equation Kb=IC50/(1+[A]/EC50) where A is the concentration of agonist added which is very close to agonist EC80 value, and IC50 and EC50 values were derived from the antagonist inhibition and orexin-A or B agonist curves, respectively.
One may read the Kb as the equilibrium dissociation constant of an antagonist, usually derived from a functional assay. Turning to `O=C([C@@H](O)c1ccc(F)cc1)N(CCc1ccc(C(F)(F)F)nc1)c1ccc2c(c1)C(O)CCO2` (single isomer, unassigned) [Example 102, (S)-2-(4-Fluoro-phenyl)-2-hydroxy-N-((S or R)-4-hydroxy-chroman-6-yl)-N-[2-(6-trifluoromethyl-pyridin-3-yl)-ethyl]-acetamide], the Kb stood at 0.0116 µM. On to `Cc1ccc(N(CCc2ccc(C(F)(F)F)nc2)C(=O)[C@@H](N)c2ccccc2)cc1C` [Example 1, (S)-2-Amino-N-(3,4-dimethyl-phenyl)-2-phenyl-N-[2-(6-trifluoromethyl-pyridin-3-yl)-ethyl]-acetamide], for which the antagonist dissociation constant (Kb) was found to be 0.0007 µM.

For `Cc1ccc(N(CCc2ccc(C(F)(F)F)nc2)C(=O)[C@@H](O)c2ccccc2)cc1C` [Example 2, (S)—N-(3,4-Dimethyl-phenyl)-2-hydroxy-2-phenyl-N-[2-(6-trifluoromethyl-pyridin-3-yl)-ethyl]-acetamide], the Kb amounted to 0.0025 µM. With `Cc1ccc(N(CCc2ccc(C(F)(F)F)nc2)C(=O)[C@H](O)c2ccccc2)cc1C` [Example 3, (R)—N-(3,4-Dimethyl-phenyl)-2-hydroxy-2-phenyl-N-[2-(6-trifluoromethyl-pyridin-3-yl)-ethyl]-acetamide], the Kb was 0.0159 µM. Regarding `COc1ccc(N(CCc2ccc(C(F)(F)F)nc2)C(=O)[C@@H](NC(=O)[C@@H](N)c2ccccc2)c2ccccc2)cc1OC` [Example 4, (S)-2-((S)-2-Amino-2-phenyl-acetylamino)-N-(3,4-dimethoxy-phenyl)-2-phenyl-N-[2(6-trifluoromethyl-pyridin-3-yl)-ethyl]-acetamide], the Kb was 0.0017 µM. For the molecule `COc1ccc(N(CCc2ccc(C(F)(F)F)nc2)C(=O)[C@@H](N)c2ccccc2)cc1OC` [Example 5, (S)-2-Amino-N-(3,4-dimethoxy-phenyl)-2-phenyl-N-[2-(6-trifluoromethyl-pyridin-3-yl)-ethyl]-acetamide], the Kb was found to be 0.0005 µM. With `Cc1ccc(N(CCc2ccc(C(F)(F)F)nc2)C(=O)[C@@H](O)c2ccc(F)cc2)cc1C` [Example 7, (S)—N-(3,4-Dimethyl-phenyl)-2-(4-fluoro-phenyl)-2-hydroxy-N-[2-(6-trifluoromethyl-pyridin-3-yl)-ethyl]-acetamide] the figure was 0.0005 µM.

In the case of `Cc1ccc(N(CCc2ccc(C(F)(F)F)nc2)C(=O)[C@@H](NC2(CN)COC2)c2ccccc2)cc1C` [Example 8, (S)-2-(3-Aminomethyl-oxetan-3-ylamino)-N-(3,4-dimethyl-phenyl)-2-phenyl-N-[2-(6-trifluoromethyl-pyridin-3-yl)-ethyl]acetamide], the antagonist dissociation constant (Kb) worked out at 0.0263 µM.

In the case of `N[C@H](C(=O)N(CCc1ccc(C(F)(F)F)nc1)c1ccc2c(c1)CCCC2)c1ccccc1` [Example 9, (S)-2-Amino-2-phenyl-N-(5,6,7,8-tetrahydro-naphthalen-2-yl)-N-[2-(6-trifluoromethyl-pyridin-3-yl)-ethyl]-acetamide], the Kb was 0.0006 µM. Regarding `Cc1ccc(N(CCc2ccc(C(F)(F)F)nc2)C(=O)[C@@H](N)c2ccc(F)cc2)cc1C` [Example 10, (S)-2-Amino-N-(3,4-dimethyl-phenyl)-2-(4-fluoro-phenyl)-N-[2-(6-trifluoromethyl-pyridin-3-yl)-ethyl]-acetamide], the antagonist dissociation constant (Kb) turned out to be 0.0014 µM. For the molecule `O=C([C@@H](O)c1ccccc1)N(CCc1ccc(C(F)(F)F)nc1)c1ccc2c(c1)CCCC2` [Example 12, (S)-2-Hydroxy-2-phenyl-N-(5,6,7,8-tetrahydro-naphthalen-2-yl)-N-[2-(6-trifluoromethyl-pyridin-3-yl)-ethyl]-acetamide], the antagonist dissociation constant (Kb) turned out to be 0.0015 µM. With `Cc1ccc(N(CCc2ccc(C(F)(F)F)nc2)C(=O)[C@@H](O)c2ccccc2)cc1` [Example 15, (S)-2-Hydroxy-2-phenyl-N-p-tolyl-N-[2-(6-trifluoromethyl-pyridin-3-yl)-ethyl]-acetamide], the Kb was determined as 0.0241 µM. Consider `Cc1ccc(N(CCc2ccc(C(F)(F)F)nc2)C(=O)Cc2ccccc2)cc1C` [Example 17, N-(3,4-Dimethyl-phenyl)-2-phenyl-N-[2-(6-trifluoromethyl-pyridin-3-yl)-ethyl]-acetamide], for which the Kb turned out to be 0.0362 µM. With `COc1cc(N(CCc2ccc(C(F)(F)F)nc2)C(=O)[C@@H](O)c2ccccc2)ccc1C` [Example 19, (S)-2-Hydroxy-N-(3-methoxy-4-methyl-phenyl)-2-phenyl-N-[2-(6-trifluoromethyl-pyridin-3-yl)-ethyl]-acetamide] the figure was 0.0109 µM; with `Cc1ccc(N(CCc2ccc(C(F)(F)F)nc2)C(=O)C(=O)c2ccccc2)cc1C` [Example 20, N-(3,4-Dimethyl-phenyl)-2-oxo-2-phenyl-N-[2-(6-trifluoromethyl-pyridin-3-yl)-ethyl]-acetamide], 0.0916 µM. On to `Cc1ccc(CCN(C(=O)[C@@H](N)c2ccccc2)c2ccc(C)c(C)c2)nc1` [Example 21, (S)-2-Amino-N-(3,4-dimethyl-phenyl)-N-[2-(5-methyl-pyridin-2-yl)-ethyl]-2-phenyl-acetamide hydrochloride], for which the antagonist equilibrium constant (Kb) came out at 0.0047 µM. The value for `Cc1ccc(N(CCc2ccc(C(F)(F)F)nc2)C(=O)[C@@H](C)c2ccccc2)cc1C` [Example 24, (S)—N-(3,4-Dimethyl-phenyl)-2-phenyl-N-[2-(6-trifluoromethyl-pyridin-3-yl)-ethyl]-propionamide] was 0.0839 µM; that for `Cc1ccc(N(CCc2ccc(C(F)(F)F)cn2)C(=O)[C@@H](N)c2ccccc2)cc1C` [Example 25, (S)-2-Amino-N-(3,4-dimethyl-phenyl)-2-phenyl-N-[2-(5-trifluoromethyl-pyridin-2-yl)-ethyl]-acetamide hydrochloride] was 0.0008 µM; that for `Cc1ccc(N(CCc2ccc(C(F)(F)F)cn2)C(=O)[C@@H](O)c2ccccc2)cc1C` [Example 26, (S)—N-(3,4-Dimethyl-phenyl)-2-hydroxy-2-phenyl-N-[2-(5-trifluoromethyl-pyridin-2-yl)-ethyl]-acetamide] was 0.0038 µM. Consider `CCn1nc(C)c2cc(N(CCc3ccc(C(F)(F)F)nc3)C(=O)[C@@H](O)c3ccccc3)ccc21` [Example 48, (S)—N-(1-Ethyl-3-methyl-1H-indazol-5-yl)-2-hydroxy-2-phenyl-N-[2-(6-trifluoromethyl-pyridin-3-yl)-ethyl]-acetamide], for which the Kb was 0.07 µM. For `O=C([C@@H](O)c1ccccc1)N(CCc1ccc(C(F)(F)F)nc1)c1cnc2ccccc2c1` [Example 49], the Kb came out at 0.0361 µM. As to `O=C([C@@H](O)c1ccccc1)N(CCc1ccc(C(F)(F)F)nc1)c1ccc2c(c1)OCCO2` [Example 55, (S)—N-(2,3-Dihydro-benzo[1,4]dioxin-6-yl)-2-hydroxy-2-phenyl-N-[2-(6-trifluoromethyl-pyridin-3-yl)-ethyl]-acetamide], the antagonist dissociation constant (Kb) came out at 0.0142 µM. Take `COc1cccc(N(CCc2ccc(C(F)(F)F)nc2)C(=O)[C@@H](O)c2ccccc2)c1` [Example 56, (S)-2-Hydroxy-N-(3-methoxy-phenyl)-2-phenyl-N-[2-(6-trifluoromethyl-pyridin-3-yl)-ethyl]-acetamide]: the antagonist equilibrium constant (Kb) turned out to be 0.0176 µM. Regarding `Cc1ccc(N(CCc2ccc(C(F)(F)F)nc2)C(=O)[C@@H](NC2COC2)c2ccccc2)cc1C` [Example 57, (S)—N-(3,4-Dimethyl-phenyl)-2-(oxetan-3-ylamino)-2-phenyl-N-[2-(6-trifluoromethyl-pyridin-3-yl)-ethyl]-acetamide], the Kb was 0.0016 µM.

The record behind these values is patent US8133909B2 (Hoffmann-La Roche Inc., priority 2008, dated 2012).
